Laboratory results from PubChem BioAssay (NCI).
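Each compound was tested at five concentrations against cells in 96-well plates for 48 hours. TGI denotes the concentration required for complete inhibition of growth.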

What was measured:
Test in all cases: inhibition of tumour cell growth, NCI panel, 48 h
U251 CNS = system: U251 CNS
EKVX NSCLC = system: EKVX NSCLC
RPMI-8226 leukemia = system: RPMI-8226 leukemia
SF-539 CNS = system: SF-539 CNS
NCI-H460 lung = system: NCI-H460 lung
COLO 205 colon = system: COLO 205 colon
SF-295 CNS = system: SF-295 CNS
SNB-75 CNS = system: SNB-75 CNS
PC-3 prostate = system: PC-3 prostate
NCI-H23 lung = system: NCI-H23 lung
HOP-62 NSCLC = system: HOP-62 NSCLC
TK-10 renal = system: TK-10 renal
SK-MEL-28 melanoma = system: SK-MEL-28 melanoma
RXF 393 renal = system: RXF 393 renal
HL-60(TB) leukemia = system: HL-60(TB) leukemia
CAKI-1 renal = system: CAKI-1 renal
786-0 renal = system: 786-0 renal
OVCAR-3 ovarian = system: OVCAR-3 ovarian
SN12C renal = system: SN12C renal
K-562 leukemia = system: K-562 leukemia
BT-549 breast = system: BT-549 breast
UACC-257 melanoma = system: UACC-257 melanoma
SK-MEL-2 melanoma = system: SK-MEL-2 melanoma
HCC-2998 colon = system: HCC-2998 colon
UO-31 renal = system: UO-31 renal
SR leukemia = system: SR leukemia
T-47D breast = system: T-47D breast
UACC-62 melanoma = system: UACC-62 melanoma
OVCAR-5 ovarian = system: OVCAR-5 ovarian
HCT-15 colon = system: HCT-15 colon
HT29 colon = system: HT29 colon
MOLT-4 leukemia = system: MOLT-4 leukemia
NCI-H522 lung = system: NCI-H522 lung
SW-620 colon = system: SW-620 colon
SF-268 CNS = system: SF-268 CNS
MCF7 breast = system: MCF7 breast
LOX IMVI melanoma = system: LOX IMVI melanoma
KM12 colon = system: KM12 colon
ACHN renal = system: ACHN renal
NCI/ADR-RES ovarian = system: NCI/ADR-RES ovarian
SK-MEL-5 melanoma = system: SK-MEL-5 melanoma
DU-145 prostate = system: DU-145 prostate
MDA-MB-231 breast = system: MDA-MB-231 breast
HCT-116 colon = system: HCT-116 colon
MDA-MB-435 = system: MDA-MB-435
IGROV1 ovarian = system: IGROV1 ovarian
CCRF-CEM leukemia = system: CCRF-CEM leukemia
OVCAR-4 ovarian = system: OVCAR-4 ovarian
A498 renal = system: A498 renal
OVCAR-8 ovarian = system: OVCAR-8 ovarian
SK-OV-3 ovarian = system: SK-OV-3 ovarian
NCI-H226 lung = system: NCI-H226 lung
M14 melanoma = system: M14 melanoma
A549 NSCLC = system: A549 NSCLC
MALME-3M melanoma = system: MALME-3M melanoma
HOP-92 NSCLC = system: HOP-92 NSCLC
SNB-19 CNS = system: SNB-19 CNS
HS 578T breast = system: HS 578T breast

SMILES: N#Cc1nc(COCCOCc2ccc(F)cc2)oc1N
- TGI (U251 CNS): > 100 µM
- TGI (EKVX NSCLC): > 100 µM
- TGI (RPMI-8226 leukemia): > 100 µM
- TGI (SF-539 CNS): > 100 µM
- TGI (NCI-H460 lung): > 100 µM
- TGI (COLO 205 colon): > 100 µM
- TGI (SF-295 CNS): > 100 µM
- TGI (SNB-75 CNS): > 100 µM
- TGI (PC-3 prostate): > 100 µM
- TGI (NCI-H23 lung): > 100 µM
- TGI (HOP-62 NSCLC): > 100 µM
- TGI (TK-10 renal): > 100 µM
- TGI (SK-MEL-28 melanoma): > 100 µM
- TGI (RXF 393 renal): > 100 µM
- TGI (HL-60(TB) leukemia): > 100 µM
- TGI (CAKI-1 renal): > 100 µM
- TGI (786-0 renal): > 100 µM
- TGI (OVCAR-3 ovarian): > 100 µM
- TGI (SN12C renal): > 100 µM
- TGI (K-562 leukemia): > 100 µM
- TGI (BT-549 breast): > 100 µM
- TGI (UACC-257 melanoma): > 100 µM
- TGI (SK-MEL-2 melanoma): > 100 µM
- TGI (HCC-2998 colon): > 100 µM
- TGI (UO-31 renal): > 100 µM
- TGI (SR leukemia): > 100 µM
- TGI (T-47D breast): > 100 µM
- TGI (UACC-62 melanoma): > 100 µM
- TGI (OVCAR-5 ovarian): > 100 µM
- TGI (HCT-15 colon): > 100 µM
- TGI (HT29 colon): > 100 µM
- TGI (MOLT-4 leukemia): > 100 µM
- TGI (NCI-H522 lung): > 100 µM
- TGI (SW-620 colon): > 100 µM
- TGI (SF-268 CNS): > 100 µM
- TGI (MCF7 breast): > 100 µM
- TGI (LOX IMVI melanoma): > 100 µM
- TGI (KM12 colon): > 100 µM
- TGI (ACHN renal): > 100 µM
- TGI (NCI/ADR-RES ovarian): > 100 µM
- TGI (SK-MEL-5 melanoma): > 100 µM
- TGI (DU-145 prostate): > 100 µM
- TGI (MDA-MB-231 breast): > 100 µM
- TGI (HCT-116 colon): > 100 µM
- TGI (MDA-MB-435): > 100 µM
- TGI (IGROV1 ovarian): > 100 µM
- TGI (CCRF-CEM leukemia): > 100 µM
- TGI (OVCAR-4 ovarian): > 100 µM
- TGI (A498 renal): > 100 µM
- TGI (OVCAR-8 ovarian): > 100 µM
- TGI (SK-OV-3 ovarian): > 100 µM
- TGI (NCI-H226 lung): > 100 µM
- TGI (M14 melanoma): > 100 µM
- TGI (A549 NSCLC): > 100 µM

SMILES: CC1(C)O[C@@H](CBr)C[C@H](C[C@H]2C[C@@H](O)C[C@@H](CCOCc3ccccc3)O2)O1
- TGI (U251 CNS): > 100 µM
- TGI (EKVX NSCLC): 33 µM
- TGI (RPMI-8226 leukemia): 97 µM
- TGI (NCI-H460 lung): 87.1 µM
- TGI (COLO 205 colon): 54.4 µM
- TGI (SF-295 CNS): 32.4 µM
- TGI (SNB-75 CNS): 36.9 µM
- TGI (PC-3 prostate): 39 µM
- TGI (NCI-H23 lung): 36.7 µM
- TGI (MALME-3M melanoma): 35.1 µM
- TGI (HOP-92 NSCLC): 77.5 µM
- TGI (SNB-19 CNS): 61.8 µM
- TGI (HOP-62 NSCLC): 42.8 µM
- TGI (TK-10 renal): 38.3 µM
- TGI (SK-MEL-28 melanoma): 69.2 µM
- TGI (CAKI-1 renal): 51.3 µM
- TGI (786-0 renal): 39.8 µM
- TGI (OVCAR-3 ovarian): 39.8 µM
- TGI (HS 578T breast): 47.7 µM
- TGI (SN12C renal): 79.4 µM
- TGI (K-562 leukemia): > 100 µM
- TGI (UACC-257 melanoma): 37.8 µM
- TGI (SK-MEL-2 melanoma): 32 µM
- TGI (HCC-2998 colon): 53.7 µM
- TGI (UO-31 renal): 43.5 µM
- TGI (SR leukemia): > 100 µM
- TGI (T-47D breast): 38.3 µM
- TGI (UACC-62 melanoma): 34.4 µM
- TGI (OVCAR-5 ovarian): 38.4 µM
- TGI (HCT-15 colon): 57.1 µM
- TGI (MOLT-4 leukemia): > 100 µM
- TGI (NCI-H522 lung): 35.4 µM
- TGI (SW-620 colon): > 100 µM
- TGI (SF-268 CNS): 39.2 µM
- TGI (MCF7 breast): 46.2 µM
- TGI (LOX IMVI melanoma): 71.8 µM
- TGI (KM12 colon): 40.7 µM
- TGI (ACHN renal): 57.4 µM
- TGI (NCI/ADR-RES ovarian): 41.1 µM
- TGI (SK-MEL-5 melanoma): > 100 µM
- TGI (DU-145 prostate): 61.8 µM
- TGI (MDA-MB-231 breast): > 100 µM
- TGI (HCT-116 colon): 45.4 µM
- TGI (MDA-MB-435): 55.6 µM
- TGI (IGROV1 ovarian): 42.6 µM
- TGI (CCRF-CEM leukemia): > 100 µM
- TGI (OVCAR-4 ovarian): 41.7 µM
- TGI (A498 renal): 48.6 µM
- TGI (OVCAR-8 ovarian): 47.7 µM
- TGI (SK-OV-3 ovarian): 33.7 µM
- TGI (NCI-H226 lung): 35.5 µM
- TGI (M14 melanoma): 50.2 µM
- TGI (A549 NSCLC): 75.7 µM
